Experiments:
stable PDAC cell lines = assay: Dose-escalation IC50 determination, cell viability by CellTiterBlue; format: cell-based, human; details: 72 h; 3-fold serial dilutions in quadruplicates
Description: For calculation of the IC50, 3-fold serial dilutions of selected compounds were screened in quadruplicates, incubated for 72 h after which cell viability was assessed using CellTiterBlue as described. Raw data was normalized to positive and negative controls present on each individual plate IC50 values were calculated using GraphPad Prism (Graph Pad Software, La Jolla).
For calculation of the IC50 serial dilutions of selected compounds were screened in quadruplicates. In brief, 8,000 cells/well were seeded 24 h prior to addition of individual compounds in 96-well plates. After incubation for 72 h, cell viability was assessed using CellTiterBlue (Promega, Mannheim) as described. Raw data was normalized to positive and negative controls present on each individual plate. IC50 values were calculated using GraphPad Prism (Graph Pad Software, La Jolla).

[1] = system: PACO tumors (transplanted human PDAC tumors); assay: In vivo drug screen, subcutaneous PACO tumors in NSG mice, relative tumor volume; details: tumors of all three subtypes; 125 mg/kg i.p. twice weekly
Description: Three groups of mice that each carried transplanted human tumors of one either the sensitive or the resistant subtypes were treated with Dasatinib, either alone or in combination with the chemotherapeutic agent Gemcitabine.
PACO tumors were established by injecting 5×10^5 cells subcutaneously into a cohort 20 NOD.Cg-Prkdcscid Il2rgtm1Wjl (NSG) mice. After the tumors reached a size of approx. 200 mm^3, mice were randomized into two groups of each 10 mice—Control, Gemcitabine, Dasatinib or combination of both. Gemcitabine was dissolved in 0.8% buffered saline and administered twice weekly at 125 mg/kg i.p. Dasatinib was prepared in citrate/citric acid buffer (pH 3) and administered daily via oral gavage at 25 mg/kg. Tumor volume was determined twice weekly via caliper measurements and calculated according the formula (length×height×width)×(π/6). Relative tumor growth was calculated for each individual tumor in relation to the volume calculated as of the start of the experiment.
Tumor size is expressed as relative volume normalized to the day of start of treatment.

SMILES | fold lower IC50 value of the classical subtype versus exocrine-like and quasi-mesenchymal PDAC cells (stable PDAC cell lines) | tumor growth, Gemcitabine alone [1]
Cc1nc(Nc2ncc(C(=O)Nc3c(C)cccc3Cl)s2)cc(N2CCN(CCO)CC2)n1 [Dasatinib] | > 10,000 fold | –
Nc1ccn([C@@H]2O[C@H](CO)[C@@H](O)C2(F)F)c(=O)n1 [Gemcitabine] | – | growth-inhibitory effect on tumors of all three subtypes, however did not lead to a complete stop in tumor growth

Source: US20150290193A1, “NOVEL APPROACHES FOR INDIVIDUALIZED THERAPY OF PANCREATIC DUCTAL ADENOCARCINOMA” (HI-STEM gGmbH, priority 2012, published 2015)
